What was measured:
[1] = molecular target: Kappa-type opioid receptor (Rattus norvegicus, UniProt P34975)
[2] = molecular target: Mu-type opioid receptor (Rattus norvegicus, UniProt P33535)
[3] = molecular target: Delta-type opioid receptor (Mus musculus, UniProt P32300)
Sequence of Delta-type opioid receptor (P32300 whole entry): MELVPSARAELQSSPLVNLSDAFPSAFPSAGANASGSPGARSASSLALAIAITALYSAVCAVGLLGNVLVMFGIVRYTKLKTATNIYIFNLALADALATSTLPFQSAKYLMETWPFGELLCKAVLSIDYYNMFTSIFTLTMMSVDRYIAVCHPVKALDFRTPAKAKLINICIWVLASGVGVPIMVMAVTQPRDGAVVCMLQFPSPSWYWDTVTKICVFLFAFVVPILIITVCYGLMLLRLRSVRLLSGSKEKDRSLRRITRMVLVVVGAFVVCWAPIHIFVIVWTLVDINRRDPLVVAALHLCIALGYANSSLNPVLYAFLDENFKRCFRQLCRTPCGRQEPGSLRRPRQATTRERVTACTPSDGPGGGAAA

Sequence of Mu-type opioid receptor (P33535 whole entry): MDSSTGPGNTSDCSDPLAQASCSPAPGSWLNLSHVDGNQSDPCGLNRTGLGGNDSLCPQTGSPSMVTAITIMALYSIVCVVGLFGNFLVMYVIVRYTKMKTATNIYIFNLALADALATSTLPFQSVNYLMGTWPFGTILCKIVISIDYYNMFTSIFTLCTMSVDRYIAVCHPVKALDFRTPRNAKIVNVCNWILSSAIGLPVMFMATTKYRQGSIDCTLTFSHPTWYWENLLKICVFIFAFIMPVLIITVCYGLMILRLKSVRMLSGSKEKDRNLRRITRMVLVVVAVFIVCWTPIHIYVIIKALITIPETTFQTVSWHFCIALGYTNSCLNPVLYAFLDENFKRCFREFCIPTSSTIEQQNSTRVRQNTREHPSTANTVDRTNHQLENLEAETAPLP
Sequence of Kappa-type opioid receptor (P34975 whole entry): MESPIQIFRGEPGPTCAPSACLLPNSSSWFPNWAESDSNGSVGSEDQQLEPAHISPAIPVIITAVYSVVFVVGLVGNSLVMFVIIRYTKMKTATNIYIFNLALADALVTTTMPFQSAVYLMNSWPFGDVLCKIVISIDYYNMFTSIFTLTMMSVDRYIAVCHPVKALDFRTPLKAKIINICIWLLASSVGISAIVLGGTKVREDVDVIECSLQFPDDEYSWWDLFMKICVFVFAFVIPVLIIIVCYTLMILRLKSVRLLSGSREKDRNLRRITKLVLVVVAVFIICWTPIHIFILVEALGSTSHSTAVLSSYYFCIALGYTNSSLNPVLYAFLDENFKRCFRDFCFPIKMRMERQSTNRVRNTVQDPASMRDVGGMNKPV

Structure (SMILES)	Ki [1] [nM]	Ki [2] [nM]	Ki [3] [µM]
CC(C)C[C@H](NC(=O)[C@H](Cc1ccccc1)NC(=O)CNC(=O)CNC(=O)[C@@H](N)Cc1ccc(O)cc1)C(=O)N[C@@H](CCCN=C(N)N)C(=O)N[C@@H](CCCN=C(N)N)C(=O)N[C@H](C)C(=O)N[C@@H](CCCN=C(N)N)C(=O)N1CCC[C@H]1C(=O)N[C@@H](CCCCN)C(N)=O [[D-Ala8]Dyn A-(1-11)NH2]	9.53	–	–
CC(C)C[C@H](NC(=O)[C@@H](Cc1ccccc1)NC(=O)CNC(=O)CNC(=O)[C@@H](N)Cc1ccc(O)cc1)C(=O)N[C@@H](CCCN=C(N)N)C(=O)N[C@@H](CCCN=C(N)N)C(=O)N[C@H](C)C(=O)N[C@@H](CCCN=C(N)N)C(=O)N1CCC[C@H]1C(=O)N[C@@H](CCCCN)C(N)=O [[D-Phe4, D-Ala8]Dyn A-(1-11)NH2]	–	88.2	> 10

— BindingDB's records for doi:10.1002/1520-636X(2001)13:3 (University of Maryland, 2001)
